The target in one assay is α-melanocyte-stimulating hormone receptor (hMC4R) (Homo sapiens (Human), UniProt P32245). Kind of assay: In vitro binding affinity assay using hMC4R (radioligand competition binding, [125I]-(Nle4, D-Phe7)-α-MSH). The settings on record: geometric mean, read-out: Ki (nM) geometric. As to the method:
The binding affinity of test compounds at the α-melanocyte-stimulating hormone receptor (hMC4R) was assessed using a radioligand competition binding assay. Recombinant Chinese hamster ovaries (CHO) cells stably expressing hMC4R (PerkinElmer #ES-191-C) were used for competitive binding. hMC4R membranes were grown in Dulbecco's Modified Essential Medium and Ham's F-12 Medium (DMEM/F12), 10% heat inactivated fetal bovine serum (FBS), 0.4 mg/mL Geneticin and 2 mM L-glutamine. Cell membranes were bulked and frozen until the assay was performed.
Compounds were solubilized in 100% dimethyl sulfoxide (DMSO) to a concentration of 30 mM. A 10-point intermediate dilution series using half log dilutions was created in 100% DMSO with a top concentration of 0.03 mM. The serially diluted compounds were spotted as 1 μL/well, in 96-well Costar 3363 plates. The final compound range in the assay was 300 nM to 0.01 nM with a final DMSO concentration of 1%. Control wells, containing 1 μL of 2 mM ([…]) alpha-melanocyte stimulating hormone (α-MSH-Tocris #2584) was added to the non-specific binding wells and 1 μL 100% DMSO for the total binding control wells. […] The exact concentration of radioligand used for each experiment was determined by liquid scintillation counting and adjusted if necessary.
Frozen hMC4R cell membranes were thawed and Dounce homogenized. Homogenates were resuspended in assay buffer to a concentration of 2 μg per well. […] The plates were incubated for 2 hours at room temperature. Assay samples were then rapidly filtered through Unifilter-96 GF/B PEI coated filter plates using a filter plate harvester (PerkinElmer) and rinsed with ice-cold wash buffer [25 mM (4-(2-hydroxyethyl)-1-piperazineethanesulfonic acid (HEPES), 1 mM MgCl2, 2.5 mM CaCl2, and 500 mM NaCl]. Filter plates were dried overnight at room temperature. Plates were then bottom-sealed prior to the addition of 50 μL/well Ultima Gold XR scintillation fluid (PerkinElmer 6013111). Plates were then top-sealed, incubated for 60 minutes at room temperature and then the amount of radioactivity present was determined by liquid scintillation counting on a Microbeta Trilux (PerkinElmer #2450-0060).
The raw data (expressed as counts per minute) were analyzed using ActivityBase (IDBS Data Management Software). […] Equilibrium dissociation constant for inhibitor of ligand and receptor interaction (Ki) values were then calculated from the IC50 values using the Cheng-Prusoff equation: Ki=IC50/(1+([L]/Kd)), where [L] is the concentration of the radioligand used in the experiment and Kd is the affinity of the radioligand (determined in separate saturation experiments).
On the technique in general: In a radioligand displacement assay an active substance lowers the binding of a labelled ligand.
Chain of α-melanocyte-stimulating hormone receptor (hMC4R) (P32245 whole entry): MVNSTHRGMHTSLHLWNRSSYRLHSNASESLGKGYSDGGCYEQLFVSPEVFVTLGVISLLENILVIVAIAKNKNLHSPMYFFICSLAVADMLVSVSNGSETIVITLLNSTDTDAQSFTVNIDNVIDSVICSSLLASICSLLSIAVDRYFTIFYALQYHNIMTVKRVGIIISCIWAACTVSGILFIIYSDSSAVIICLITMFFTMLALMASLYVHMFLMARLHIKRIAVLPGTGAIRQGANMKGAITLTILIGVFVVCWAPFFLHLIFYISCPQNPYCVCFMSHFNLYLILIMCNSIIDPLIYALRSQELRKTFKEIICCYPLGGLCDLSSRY
The term Ki denotes a measure of affinity in units of concentration, obtained from inhibition or displacement. With `COc1cc([C@@H](C)C(=O)N2CC[C@]3(CCc4cc(-c5nnn(C)n5)c(C)nc4N3)C2)c(F)cn1` [Example 116, (2R)-2-(5-fluoro-2-methoxypyridin-4-yl)-1-[(2R)-7-methyl-6-(2-methyl-2H-tetrazol-5-yl)-3,4-dihydro-1H-spiro[1,8-naphthyridine-2,3′-pyrrolidin]-1′-yl]propan-1-one], the Ki turned out to be 7.1 nM.

Consider `COc1cc([C@@H](C)C(=O)N2CC[C@@]3(CCc4cc(-c5cnn(C)n5)c(C)nc4N3)C2)c(F)cn1` [Example 118, (2R)-2-(5-fluoro-2-methoxypyridin-4-yl)-1-[(2S)-7-methyl-6-(2-methyl-2H-1,2,3-triazol-4-yl)-3,4-dihydro-1H-spiro[1,8-naphthyridine-2,3′-pyrrolidin]-1′-yl]propan-1-one], for which the Ki was found to be 0.83 nM.

As for `COc1cc([C@@H](C)C(=O)N2CC[C@@]3(CCc4cc(-c5cnn(C)n5)c(C)nc4N3)C2)c(Cl)cn1` [Example 119, (2R)-2-(5-chloro-2-methoxypyridin-4-yl)-1-[(2S)-7-methyl-6-(2-methyl-2H-1,2,3-triazol-4-yl)-3,4-dihydro-1H-spiro[1,8-naphthyridine-2,3′-pyrrolidin]-1′-yl]propan-1-one], the Ki is more than 17 nM.

As to `COc1cc([C@@H](C)C(=O)N2CC[C@@]3(CCc4cc(-c5nc(C(F)F)n(C)n5)c(C)nc4N3)C2)c(Cl)cn1` [Example 120, (2R)-2-(5-chloro-2-methoxypyridin-4-yl)-1-{(2S)-6-[5-(difluoromethyl)-1-methyl-1H-1,2,4-triazol-3-yl]-7-methyl-3,4-dihydro-1H-spiro[1,8-naphthyridine-2,3′-pyrrolidin]-1′-yl}propan-1-one], the Ki was determined as 0.4 nM.

The assay is the same for the next values; noted with them: geometric mean, read-out: Ki (nM) geometric mean.
As for `COc1cc([C@@H](C)C(=O)N2CC[C@@]3(CCc4cc(-c5ncccn5)c(C)nc4N3)C2)c(F)cn1` [Example 14, (2R)-2-(5-Fluoro-2-methoxypyridin-4-yl)-1-[(2S)-7-methyl-6-(pyrimidin-2-yl)-3,4-dihydro-1H-spiro[1,8-naphthyridine-2,3′-pyrrolidin]-1′-yl]propan-1-one], the Ki came to 0.46 nM.

Regarding `COc1cc([C@@H](C)C(=O)N2CC[C@@]3(CCc4cc(-c5ncccn5)c(C)nc4N3)C2)c(Cl)cn1` [Example 15, (2R)-2-(5-Chloro-2-methoxypyridin-4-yl)-1-[(2S)-7-methyl-6-(pyrimidin-2-yl)-3,4-dihydro-1H-spiro[1,8-naphthyridine-2,3′-pyrrolidin]-1′-yl]propan-1-one], the Ki amounted to 0.25 nM.

On to `[2H]c1cc([2H])nc(-c2cc3c(nc2C)N[C@@]2(CC3)CCN(C(=O)[C@H](C)c3cc(OC)ncc3F)C2)n1` [Example 18, (2R)-2-(5-Fluoro-2-methoxypyridin-4-yl)-1-{(2S)-7-methyl-6-[(4,6-2H2)pyrimidin-2-yl]-3,4-dihydro-1H-spiro[1,8-naphthyridine-2,3′-pyrrolidin]-1′-yl}propan-1-one], for which the Ki came to 0.18 nM.

For `COc1cc([C@@H](C)C(=O)N2CC[C@@]3(CCc4cc(-c5ncc(C(F)F)cn5)c(C)nc4N3)C2)c(F)cn1` [Example 21, (2R)-1-{(2S)-6-[5-(difluoromethyl)pyrimidin-2-yl]-7-methyl-3,4-dihydro-1H-spiro[1,8-naphthyridine-2,3′-pyrrolidin]-1′-yl}-2-(5-fluoro-2-methoxypyridin-4-yl)propan-1-one], the Ki turned out to be 2.2 nM.

Regarding `COc1cc([C@@H](C)C(=O)N2CC[C@@]3(CCc4cc(-c5ncc(Br)cn5)c(C)nc4N3)C2)c(F)cn1` [Example 22, (2R)-1-[(2S)-6-(5-bromopyrimidin-2-yl)-7-methyl-3,4-dihydro-1H-spiro[1,8-naphthyridine-2,3′-pyrrolidin]-1′-yl]-2-(5-fluoro-2-methoxypyridin-4-yl)propan-1-one], the Ki was 2 nM.

In the case of `COc1cc([C@@H](C)C(=O)N2CC[C@@]3(CCc4cc(-c5cn(C(F)(F)F)c(C)n5)c(C)nc4N3)C2)c(F)cn1` [Example 27, (2R)-2-(5-fluoro-2-methoxypyridin-4-yl)-1-{(2S)-7-methyl-6-[2-methyl-1-(trifluoromethyl)-1H-imidazol-4-yl]-3,4-dihydro-1H-spiro[1,8-naphthyridine-2,3′-pyrrolidin]-1′-yl}propan-1-one], the Ki was 2 nM.

Take `COc1cc([C@H](C)C(=O)N2CC[C@@]3(CCc4cc(-c5ncccn5)c(C)nc4N3)C2)c(F)cn1` [Example 28, (2S)-2-(5-fluoro-2-methoxypyridin-4-yl)-1-[(2S)-7-methyl-6-(pyrimidin-2-yl)-3,4-dihydro-1H-spiro[1,8-naphthyridine-2,3′-pyrrolidin]-1′-yl]propan-1-one]: the Ki worked out at 160 nM.

On to `COc1cc([C@@H](C)C(=O)N2CC[C@]3(CCc4cc(-c5ncccn5)c(C)nc4N3)C2)c(F)cn1` [Example 29, (2R)-2-(5-fluoro-2-methoxypyridin-4-yl)-1-[(2R)-7-methyl-6-(pyrimidin-2-yl)-3,4-dihydro-1H-spiro[1,8-naphthyridine-2,3′-pyrrolidin]-1′-yl]propan-1-one], for which the Ki was determined as 11 nM.

As to `COc1cc([C@H](C)C(=O)N2CC[C@]3(CCc4cc(-c5ncccn5)c(C)nc4N3)C2)c(F)cn1` [Example 30, (2S)-2-(5-fluoro-2-methoxypyridin-4-yl)-1-[(2R)-7-methyl-6-(pyrimidin-2-yl)-3,4-dihydro-1H-spiro[1,8-naphthyridine-2,3′-pyrrolidin]-1′-yl]propan-1-one], the Ki was more than 250 nM.

For `Cc1nc2c(cc1-c1ncccn1)CC[C@@]1(CCN(C(=O)Cc3cc(F)c(F)c(F)c3)C1)N2` [Example 54, 1-[(2S)-7-methyl-6-(pyrimidin-2-yl)-3,4-dihydro-1H-spiro[1,8-naphthyridine-2,3′-pyrrolidin]-1′-yl]-2-(3,4,5-trifluorophenyl)ethan-1-one], the Ki came out at 0.93 nM.

For the molecule `COc1cnc(-c2cc3c(nc2C)N[C@@]2(CC3)CCN(C(=O)[C@H](C)c3cc(OC)ncc3F)C2)nc1` [Example 67, (2R)-2-(5-fluoro-2-methoxypyridin-4-yl)-1-[(2S)-6-(5-methoxypyrimidin-2-yl)-7-methyl-3,4-dihydro-1H-spiro[1,8-naphthyridine-2,3′-pyrrolidin]-1′-yl]propan-1-one], the Ki turned out to be 2.5 nM.

Turning to `COc1cc([C@@H](C)C(=O)N2CC[C@@]3(CCc4cc(-c5ncc(C(F)(F)F)cc5F)c(C)nc4N3)C2)c(F)cn1` [Example 68, (2R)-2-(5-fluoro-2-methoxypyridin-4-yl)-1-{(2S)-6-[3-fluoro-5-(trifluoromethyl)pyridin-2-yl]-7-methyl-3,4-dihydro-1H-spiro[1,8-naphthyridine-2,3′-pyrrolidin]-1′-yl}propan-1-one], the Ki is 35 nM.

Consider `COc1cc([C@@H](C)C(=O)N2CC[C@@]3(CCc4cc(-c5nc(C(F)(F)F)ccc5F)c(C)nc4N3)C2)c(F)cn1` [Example 69, (2R)-2-(5-fluoro-2-methoxypyridin-4-yl)-1-{(2S)-6-[3-fluoro-6-(trifluoromethyl)pyridin-2-yl]-7-methyl-3,4-dihydro-1H-spiro[1,8-naphthyridine-2,3′-pyrrolidin]-1′-yl}propan-1-one], for which the inhibition constant (Ki) was found to be 5.1 nM.

With `COc1cc([C@@H](C)C(=O)N2CC[C@@]3(CCc4cc(-c5cnc(C6CC6)cn5)c(C)nc4N3)C2)c(F)cn1` [Example 70, (2R)-1-[(2S)-6-(5-cyclopropylpyrazin-2-yl)-7-methyl-3,4-dihydro-1H-spiro[1,8-naphthyridine-2,3′-pyrrolidin]-1′-yl]-2-(5-fluoro-2-methoxypyridin-4-yl)propan-1-one], the Ki amounted to 40 nM.

As for `COc1cc([C@@H](C)C(=O)N2CC[C@@]3(CCc4cc(-c5cc(C(F)(F)F)ncn5)c(C)nc4N3)C2)c(F)cn1` [Example 72, (2R)-2-(5-fluoro-2-methoxypyridin-4-yl)-1-{(2S)-7-methyl-6-[6-(trifluoromethyl)pyrimidin-4-yl]-3,4-dihydro-1H-spiro[1,8-naphthyridine-2,3′-pyrrolidin]-1′-yl}propan-1-one], the Ki stood at 3.3 nM.

Regarding `[2H]C([2H])([2H])Oc1cc([C@@H](C)C(=O)N2CC[C@@]3(CCc4cc(-c5ncccn5)c(C)nc4N3)C2)c(F)cn1` [Example 74, (2R)-2-{5-fluoro-2-[(^2H3)methyloxy]pyridin-4-yl}-1-[(2S)-7-methyl-6-(pyrimidin-2-yl)-3,4-dihydro-1H-spiro[1,8-naphthyridine-2,3′-pyrrolidin]-1′-yl]propan-1-one], the inhibitory constant (Ki) was 1.3 nM.
